According to patent US20240325544A1, “CATIONIC LIPID FOR COVALENT MODIFICATION OF PEPTIDES” (PharmalN Corporation, priority 2023, published 2024):
Bridge positions count the residues as written; N and C are the ends. Square brackets hold non-standard residues; d marks the D form. Peptide text beside a SMILES is read from it. * marks the point of attachment. Palmitoyl = CCCCCCCCCCCCCCCC(=O)*; Dap = NC[C@H](N)C(=O)O; AEEA = NCCOCCOCC(=O)O

What was measured:
[1] = molecular target: T1, human NPRC (Homo sapiens, UniProt P17342); assay: Fluorescence polarization (FP) assay with CNP-F* probe, NPRC; format: binding; conditions: 150 nM test article, 5 nM CNP-F*, 50 nM human NPRC
T1 construct: NPRC Q1-S434, (GenBank Accn. #NP_001191304.1); made in house; host or cells: Expi293 cells
T1 sequence (P17342 43-476 limits assumed): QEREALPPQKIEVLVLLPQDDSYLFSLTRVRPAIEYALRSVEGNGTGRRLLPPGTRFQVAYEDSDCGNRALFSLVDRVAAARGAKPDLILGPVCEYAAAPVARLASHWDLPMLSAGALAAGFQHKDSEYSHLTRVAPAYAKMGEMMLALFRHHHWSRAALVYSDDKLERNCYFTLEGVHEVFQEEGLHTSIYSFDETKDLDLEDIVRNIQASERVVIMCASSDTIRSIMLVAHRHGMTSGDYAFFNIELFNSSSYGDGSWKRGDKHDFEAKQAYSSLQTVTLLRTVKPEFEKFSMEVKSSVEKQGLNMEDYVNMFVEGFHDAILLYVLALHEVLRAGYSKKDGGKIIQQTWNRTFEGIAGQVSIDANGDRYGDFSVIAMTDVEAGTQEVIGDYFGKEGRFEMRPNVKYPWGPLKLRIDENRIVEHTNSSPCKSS
Description: Error bars represent standard error of the mean. […] NO.
In the presence of [SEQ ID.
The CNP-F* probe was incubated at a final concentration of 5 nM in the presence of 50 nM human NPRB or NPRC in an assay buffer containing PBS, pH 7.4 and 0.01% Triton X-100. A […] volume of CNP-F* probe and NPR were dispensed into a black 96-well Costar flat-bottom polystyrene plate prior to FP measurement. Next, […] volume of SEQ ID. No. 31 (final concentration 150 nM) was added to the premixed probe and NPR. The plate was incubated at room temperature for 10 min. Fluorescence polarization was then measured on Flexstation 3 (excitation wavelength: 480 nm; emission wavelength: 525 nm and cutoff at 515 nm).
CNP-F* was prepared using solid phase peptide synthesis. […] Next, the crude linear peptide was cleavage with 95% TFA in the presence of carbocation scavengers and ether precipitation.

[2] = system: MC38 colon cancer cells; assay: Subcutaneous mouse model of colon cancer using MC38 cells (FIG. 12); format: in vivo, mice; conditions: monotherapy, 0.3 mg/kg SC, 5 days on, 2 days off, 3 cycles; Day 22
Description: FIGS. 12A-12B. […] Error bars represent standard error of the mean. FIG. 12A) A diagram of the dose schedule for administration of immune checkpoint inhibitor (anti-tigit Ab) and SEQ ID NO: 31. FIG. 12 B) Tumor growth kinetics of 6-week-old male C57BL/6J mice (n=8-9 per group) that were subcutaneously inoculated with MC38 colon cancer cells (1,000,000 cells/mouse) in right flank. Starting from Day 4 post-inoculation, anti-tigit Ab was administered intraperitoneally at 5 mg/kg twice a week for 2 cycles; SEQ ID NO: 31 was administered subcutaneously at a bolus dose of 0.3 mg/kg (0.1 μmol/kg) once daily for 5 days (5 days on, 2 days off) for 3 cycles; or a combination of anti-tigit Ab (5 mg/kg IP twice a week; 2 cycles) and SEQ ID NO: 31 (0.3 mg/kg SC once a day for 5 days on and 2 days off; 3 cycles). The control group, which received only buffer, was dosed in the same manner as SEQ ID NO: 31 to establish the baseline tumor growth kinetics. […]
Animal care and treatment: Male C57BL/6J mice (6 weeks-old) were purchased from Kyudo (Saga, Japan) and maintained under a 12-hour light/12-hour dark cycle with free access to water and standard mouse diet (MF diet; Oriental Yeast Co., Ltd, Tokyo Japan). […] Tumor sizes were measured using calipers on Days 4, 7, 14, and Day 22 post-inoculation. […]

## CCCCCCCCCCCCCCCC(=O)NCCOCCOCC(=O)NCCOCCOCC(=O)NCCOCCOCC(=O)N[C@@H](CN)C(=O)N[C@@H](CN)C(=O)NCC(=O)N[C@@H](CC(C)C)C(=O)N[C@@H](CO)C(=O)N[C@@H](CCCCN)C(=O)NCC(=O)N[C@H]1CSSC[C@@H](C(=O)O)NC(=O)CNC(=O)[C@H](CC(C)C)NC(=O)CNC(=O)[C@H](CO)NC(=O)[C@H](CCC(N)=O)NC(=O)[C@H](CO)NC(=O)CNC(=O)[C@H]([C@@H](C)CC)NC(=O)[C@H](CCCNC(=N)N)NC(=O)[C@H](CC(=O)O)NC(=O)[C@H](CC(C)C)NC(=O)[C@H](CCCCN)NC(=O)[C@H](CC(C)C)NC(=O)CNC(=O)[C@H](Cc2ccccc2)NC1=O [SEQ ID NO: 31] ({Palmitoyl-AEEA-AEEA-AEEA}-[Dap][Dap]GLSKGCFGLKLDRIGSQSGLGC-OH; disulfide 8-24; C-terminus assumed)
[1]
  Binding to NPRC (FP signal of CNP-F* probe): low FP signal demonstrates binding
[2]
  Tumor volume and cancer burden compared to the Control group: significant decrease in tumor volume and cancer burden
